# According to patent EP1140110B1, “CLATHRATES OF DEHYDROEPIANDROSTERONE AND CORRESPONDING PHARMACEUTICAL COMPOSITIONS” (Euphar Group S.R.L., priority 1998, dated 2000):
# How the values were obtained:
# [1] = general statement in prior art section; cited from earlier work
# [2] = Kinetics and metabolism of exogenous DHEA (100 mg single oral dose, young and elderly male subjects); assay type: in vivo; conditions: 100 mg DHEA single oral dose
# Description: This first part of the experimentation was carried out with the purpose of verifying the kinetics and processes of sulfoconjugation and bioconversion of DHEA as such administered to male subjects. The said subjects were divided into two groups according to age: one group of 7 young subjects aged between 24 and 32, and one group of 10 elderly subjects, aged between 67 and 86. Each one of these subjects was administered 100 mg of DHEA in a single dose by oral route. At 0.5, 1, 2, 3, 4, 6, 9,12 and 24 hours from administration, the blood levels of DHEA, DHEA sulphate, total testosterone and 17-β-estradiol were determined. The evaluations were carried out using the parameter of the maximum delta (maximum peak reached, from which the basal values were subtracted) and the parameter of the area under the curve (triangulation system).
smiles,measurement,setting,value
"C[C@]12CC[C@H](O)CC1=CC[C@@H]1[C@@H]2CC[C@]2(C)C(=O)CC[C@@H]12 [DHEA, dehydroepiandrosterone]",solubility in water,[1],practically insoluble in water
same,"DHEA blood level response to administration, elderly versus young subjects",[2],significantly greater in the elderly subjects
same,"DHEA sulphate blood level response to administration, elderly versus young subjects",[2],significantly greater in the elderly subjects
same,"molar ratio between DHEA sulphate and DHEA in the response-to-administration curves, young versus elderly",[2],did not show any significant differences
same,time of DHEA sulphate blood level peak from administration,[2]; both groups (young and elderly),approximately two
same,blood levels of 17-β-estradiol versus placebo,[2]; compared with the testosterone finding (evident only in elderly subjects),the same phenomenon occurred
same,difference in profile of the testosterone levels versus placebo,"[2]; elderly subjects, two-way ANOVA",statistically evident
same,profile of the testosterone levels versus placebo,[2]; young subjects,did not undergo any substantial differences
